{"source": "patent EP2111861A1", "about": "“Compositions of phosphodiesterase type IV inhibitors” (Ranbaxy Laboratories Limited, priority 2008, dated 2009)", "key": {"[1]": {"system": "LPS induced airway hyperreactivity", "assay": "LPS induced airway hyperreactivity (PC100, Penh), PDE-IV inhibitor in combination with muscarinic receptor antagonist", "type": "in vivo, Wistar rats", "details": "intratracheal", "procedure": "MRA (1ng/kg to 1mg/kg) and PDE-IV inhibitor (1ng/kg to 1mg/kg) were instilled intratracheally under anesthesia either alone or in combination.\nWistar rats weighing 200±20gm were used in the study. Rats had free access to food and water. On the day of experiment, animals were exposed to lipopolysaccharide (LPS, 100µg/ml) for 40 min. One group of vehicle treated rats was exposed to phosphate buffered saline (PBS) for 40 min. four hours after LPS/PBS exposure, animals were placed inside a whole body plethysmograph (Buxco Electronics, USA) and exposed to PBS or increasing concentration of acetylcholine (1, 6, 12, 24, 48 and 96 mg/ml) aerosol until Penh values (index of airway resistance) of rats attained 2 times the value (PC-100) seen with PBS alone. The respiratory parameters were recorded online using Biosystem XA software, (Buxco Electronics, USA). Penh, at any chosen dose of acetylcholine was expressed as percent of PBS response and using a nonlinear regression analysis PC100 (2 folds of PBS value) values were computed. Percent inhibition was computed using the following formula. % Inhibition = (PC100_LPS -PC100_TEST)/(PC100_LPS -PC100_PBS) × 100 [formula] Where, PC100LPS = PC100 in vehicle treated and LPS challenged group PC100TEST = PC100 in group treated with a given dose of test compound PC100PBS = PC100 in vehicle treated group challenged with PBS"}, "[2]": {"system": "TNF-α release from human PBMCs", "assay": "Cell based Assay for TNF-α release, PDE IV inhibitor in combination with p38 MAP Kinase inhibitors", "details": "inhibiting TNF-α release from human PBMCs, LPS stimulated, compound alone", "procedure": "Blood was collected in heparin or EDTA vacutainers from healthy human volunteers and Peripheral Blood Mononuclear Cells isolated using Ficoll Hypaque gradient. The cells were resuspended in serum free RPMI 1640 medium at a concentration of 2 million cells/ml.). 1 ml of this cell suspension was co-incubated with 20 µl of compound, alone or in combination, for 10 min in a flat bottom 96 well microtiter plate. Compounds were dissolved in DMSO initially and diluted in medium for a final concentration of 0.2 % DMSO. LPS (1 µg/ml, final concentration) was then added at a volume of 10 µl per well. After 30 min, 20 µl of fetal calf serum (final concentration of 10 %) was added to each well. Cultures were incubated overnight at 37 °C in an atmosphere of 5 % CO2 and 95 % air. Supernatant were then removed and tested by ELISA for TNF-α release using a commercial kit (e.g. BD Biosciences). The level of TNF-α in treated wells was compared with the vehicle treated controls and inhibitory potency of compound was expressed as IC50 values calculated from the percent inhibition values by using Graph pad prism. Percent inhibition = 100-(Percent TNF-α drug treated)/(Percent TNF-α in vehicle treated) × 100 [formula]"}, "[3]": {"system": "LPS induced rat neutrophilia", "assay": "LPS induced rat neutrophilia model, PDE IV inhibitor in combination with corticosteroids", "type": "in vivo", "details": "Compound No. 266 in combination with corticosteroid (not named), intratracheal, neutrophil count in BAL", "procedure": "PDE-4 inhibitor and corticosteroids were instilled intratracheally under anesthesia at different doses, either alone or in combination. LPS challenge: One hour after drug instillation, (LPS 20 µg/200 µl of PBS) was instilled intratracheally. One group of vehicle treated rats were instilled with 200 µl of phosphate buffered saline (PBS) and served as negative control. Bronchoalveolar lavage (BAL): Two hours after LPS challenge, bronchoalveolar lavage was performed; the animals were sacrificed using thiopentone sodium (150 mg/kg/i.p.). Trachea was cannulated and BAL was performed using Hank's Buffer salt solution (HBSS) (5 ml x 10 times). The bronchoalveolar lavage fluid was centrifuged at 800 g for 5 min, at 4°C and the pellet was resuspended in 1 ml HBSS. Total leukocyte count was performed in the resuspended sample by using hemocytometer. A cytocentrifuge preparation was made using the resuspended bronchoalveolar lavage fluid on a glass slide, stained with Leishmann's stain and then differential leukocyte counts was performed for computation of neutrophil. Statistical significance of each parameter in different treatment groups was determined with respective to vehicle control group using one-way analysis of variance followed by Dunnett's 't' test for multiple comparison. A p level of ≤ 0.05 was considered to be statistically significant."}, "TNF-α release": {"system": "TNF-α release", "assay": "Cell based Assay for TNF-α release, PDE IV inhibitor in combination with corticosteroids", "details": "Compound No. 266 in combination with corticosteroid (not named), human PBMC", "procedure": "Blood was collected in heparin or EDTA vacutainers from healthy human volunteers and Peripheral Blood Mononuclear Cells isolated using Ficoll Hypaque gradient. The cells were resuspended in serum free RPMI 1640 medium at a concentration of 2 million cells/ml). 1 ml of this cell suspension was co-incubated with 20 µl of compound, alone or in combination (PDE IV inhibitor and corticosteroid), for 10 min in a flat bottom 96 well microtiter plate The aforesaid compounds were dissolved in DMSO initially and diluted in medium for a final concentration of 0.2 % DMSO. LPS ([…], final concentration) was then added at a volume of 10 µl per well. After 30 min, 20 µl of fetal calf serum (final concentration of 10 %) was added to each well. Cultures were incubated overnight at 37 °C in an atmosphere of 5 % CO2 and 95 % air. Supernatant was then removed and tested by ELISA for TNF-α release using a commercial kit (e.g. BD Biosciences). The level of TNF-α in treated wells was compared with the vehicle treated controls and inhibitory potency of compound was expressed as IC50 values calculated by from percent inhibition values using Graph pad prism. […] Percent inhibition = 100-(Percent TNF-α drug treated)/(Percent TNF-α in vehicle treated) × 100 [formula]"}, "[4]": {"details": "Compound No. 266 in combination with Tiotropium (MRA), PC100"}}}
{"compound": "Cc1n(CCCOC(=O)[C@](O)(c2ccccc2)[C@@H]2CCC(F)(F)C2)cc[n+]1Cc1ccccc1.[Br-]", "note": "[Compound No. 104aa, 3-Benzyl-1-[3-({(2R)-2-[(1R)-3,3-difluorocyclopentyl]-2-hydroxy-2-phenylacetyl}oxy)propyl]-2-methyl-1H-imidazol-3-ium bromide]", "values": [{"measurement": "effect when administered alone", "setting": "[1]; 10 ng/kg", "result": "not effective"}]}
{"compound": "Cc1ccccc1-c1cc2cnc(NC3CCN(C(=O)NC(C)C)CC3)nc2n([C@@H]2CCOC2)c1=O", "note": "[Compound No. 47a, N-Isopropyl-4-({6-(2-methylphenyl)-7-oxo-8-[(3R)-tetrahydrofuran-3-yl]-7,8-dihydropyrido[2,3-d]pyrimidin-2-yl}amino)piperidine-1-carboxamide]", "values": [{"measurement": "IC50", "setting": "[2]; PBMC", "result": 22, "unit": "nM"}]}
{"compound": "COc1cc(C2=NO[C@]3(CCOC3)C2)ccc1OC(F)F", "note": "(single isomer, unassigned) [Compound No. 266, (5S or 5R)-3-[4-(Difluoromethoxy)-3-methoxyphenyl]-1,7-dioxa-2-azaspiro[4.4]non-2-ene]", "values": [{"measurement": "IC50", "setting": "[2]", "result": 76, "unit": "nM"}, {"measurement": "Combination Index", "setting": "[3]", "result": 0.58}, {"measurement": "synergy with corticosteroids", "setting": "[3]", "result": "synergy"}, {"measurement": "Combination Index", "setting": "TNF-α release", "result": 0.21}, {"measurement": "synergy with corticosteroids", "setting": "TNF-α release", "result": "synergy"}, {"measurement": "effect when administered alone", "setting": "[1]; 10 µg/kg", "result": "ineffective"}, {"measurement": "Combination Index", "setting": "[1]; [4]", "result": 0.26}, {"measurement": "synergy with Tiotropium (MRA)", "setting": "[1]; [4]", "result": "synergy"}]}
{"compound": "Cc1ccccc1-c1cc2cnc(NC3CCN(S(C)(=O)=O)CC3)nc2n([C@@H]2CCOC2)c1=O", "note": "[Compound No. 46a, 6-(2-Methylphenyl)-2-{[1-(methylsulfonyl)piperidin-4-yl]amino}-8-[(3R)-tetrahydrofuran-3-yl]pyrido[2,3-d]pyrimidin-7(8H)-one]", "values": [{"measurement": "IC50", "setting": "[2]; PBMC", "result": 2, "unit": "nM"}]}
{"compound": "O=c1ncn2nc(Sc3ccc(F)cc3F)ccc2c1-c1c(Cl)cccc1Cl", "note": "[Vx-745, reference compound]", "values": [{"measurement": "IC50", "setting": "[2]; PBMC", "result": 14, "unit": "nM"}]}
{"compound": "Cc1ccccc1-c1cc2cnc(NC3CCN(S(C)(=O)=O)CC3)nc2n([C@H]2CCOC2)c1=O", "note": "[Compound No. 44a, 6-(2-Methylphenyl)-2-{[1-(methylsulfonyl)piperidin-4-yl]amino}-8-[(3S)-tetrahydrofuran-3-yl]pyrido[2,3-d]pyrimidin-7(8H)-one]", "values": [{"measurement": "IC50", "setting": "[2]; PBMC", "result": 3, "unit": "nM"}]}
